Reference: patent US11358971B2, “Prodrugs of modulators of the NMDA receptor” (H. Lundbeck A/S, priority 2019, dated 2022)

Key:
[1] = MDR1-MDCKII permeability assay Papp(AB); assay type: in vitro ADME; details: dog, A to B, 60-minute incubation at 37° C., pH 7.4
Description: (§1) MDR1-MDCKII Permeability Assay Papp(AB)
(§2) MDR1-MDCKII cells (obtained from Piet Borst at the Netherlands Cancer Institute) were seeded onto […] (PET) in 96-well BD insert systems at 2.5×10^5 cells/mL until to 4-7 days for confluent cell monolayer formation.
(§3) Test compounds were diluted with the transport buffer (HBSS with 10 mM HEPES, added 1% BSA, pH 7.4) from DMSO stock solution to a concentration of 0.5 μM (DMSO: 0.4%) and applied to the apical or basolateral side of the cell monolayer. Permeation of the test compounds from A to B direction or B to A direction was determined in triplicate over a 60-minute incubation at 37° C. and 5% CO2 with a relative humidity of 95%. In addition, the efflux ratio of each compound was also determined. Test and reference compounds were quantified by LC/MS/MS analysis based on the peak area ratio of analyte/IS.
(§4) Reference compounds: Fenoterol (conc: 2 μM) was used as low permeability marker and Propranolol (conc: 2 μM) was used as high permeability marker in A to B Permeability, furthermore was bi-directional permeability of a P-glycoprotein substrate (digoxin) included.
(§5) The apparent permeability coefficient Papp (cm/s) was calculated using the equation: Papp=(dCr/dt)×Vr/(A×C0) (1) Where dCr/dt is the cumulative concentration of compound in the receiver chamber as a function of time (μM/s); Vr is the solution volume in the receiver chamber (0.05 mL on the apical side; 0.25 mL on the basolateral side); A is the surface area for the transport, i.e. 0.0804 cm^2 for the area of the monolayer; C0 is the initial concentration in the donor chamber (μM).
(§6) The efflux was calculated using the equation: Efflux ratio=Papp(BA)/Papp(AB) (2)
(§7) The mass balance (Recovery) was calculated. The mass balance is defined as: the sum of the compound recovered from the acceptor chamber and the compound remaining in the donor chamber at the end of the experiment, divided by the initial donor amount. The mass balance should be as high as possible. Criterion: Recovery <50% is insufficient.
(§8) To evaluate the integrity of the cell monolayer, Lucifer Yellow permeability was measured in one direction (A to B). The percentage of Lucifer Yellow was calculated in control wells as an estimation of the overall cell membrane integrity. The wells are considered fully acceptable if % Lucifer Yellow is less than 2%.
(§9) The experiments for the prodrugs were the same as for the parent compounds exemplified in Table 3a.

[2] = In vivo exposure (plasma and brain) after intravenous bolus injection; details: dose 2 mg/kg intravenous bolus, male Sprague Dawley rats
Description: Brain disposition of test compound was evaluated in male Sprague Dawley rats (standard body weight range). Briefly, discrete (nominal dose: 2 mg/kg, 2 ml/kg) or cassetted (nominal dose: 1 mg/kg/compound, 2 ml/kg) test compounds were administered by intravenous bolus injection (formulated in 10% hydroxypropyl-β-cyclodextrin or 10-20% Captisol, pH=3).
Serial blood samples were collected from a lateral tail vein at designated time points (n=3 per time point) then rats were put under deep isofluorane induced anaesthesia prior to removal of brains (n=3 per time point). Blood samples were stabilized against further metabolism ex vivo by addition of an esterase inhibitor (100 μM diisopropyl fluorophosphate). […]
Seven calibration standards and three QC samples were prepared in plasma and brain homogenate, respectively, in the concentration range 10-10000 ng/mL. […] Study samples with expected concentration above upper limit of quantification were diluted with blank matrix. […]
Samples were analyzed using an AB Sciex API4000 triple quadrupole (TQ) mass spectrometer operated in positive and negative electrospray ionization and MS/MS mode (multiple reaction monitoring, MRM). […] Quantification was performed by linear regression, 1/x2 weighting.
Concentrations of prodrug and drug in plasma and brain were quantified against matrix matched calibration standards.

MDR1-MDCKII cells = assay: MDR1-MDCKII permeability assay Papp(AB); assay type: in vitro ADME; details: parent compounds; 0.5 μM; A to B; 60-minute incubation at 37° C.; pH 7.4
Description: as §1, §2, §3, §4, §5, §6, §7, §8, §9

Row | Compound | Papp A→B at 60 min, 0.5 µM ([1]; MDCK-MDR1, prodrug compounds) [×10⁻⁶ cm/s] | further results
1 | Cc1ccnc2cc(C(=O)NC[C@@H](N)C(=O)OC(C)C)sc12 [Compound 2f, Isopropyl (R)-2-amino-3-(7-methylthieno[3,2-b]pyridine-2-carboxamido)propanoate] | 18.4 | Total Brain concentration (ng/mL) 30 min post dose ([2]; compound quantified 1c): BLOQ
2 | Cc1ccnc2cc(C(=O)NC[C@@H](N)C(=O)OCC(=O)N3CCCC3)sc12 [Compound 2p, 2-Oxo-2-(pyrrolidin-1-yl)ethyl (R)-2-amino-3-(7-methylthieno[3,2-b]pyridine-2-carboxamido)propanoate] | 0.81 | –
3 | COc1ccnc2cc(C(=O)NC[C@@H](N)C(=O)O)sc12 [Compound 1e, (R)-2-amino-3-(7-methoxythieno[3,2-b]pyridine-2-carboxamido)propanoic acid] | – | Permeability Papp (AB) (MDR1-MDCKII cells): BLOQ
4 | Cc1ccnc2cc(C(=O)NC[C@@H](N)C(=O)OCc3ccccc3)sc12 [Compound 2m, Benzyl (R)-2-amino-3-(7-methylthieno[3,2-b]pyridine-2-carboxamido)propanoate] | 8.68 | –
5 | Cc1ccnc2cc(C(=O)NC[C@@H](N)C(=O)OC3CC3)sc12 [Compound 2g, Cyclopropyl (R)-2-amino-3-(7-methylthieno[3,2-b]pyridine-2-carboxamido)propanoate] | 7.11 | –
6 | CCCCOC(=O)[C@H](N)CNC(=O)c1cc2nccc(C)c2s1 [Compound 2h, Butyl (R)-2-amino-3-(7-methylthieno[3,2-b]pyridine-2-carboxamido)propanoate] | 6.11 | –
7 | CCCOC(=O)[C@H](N)CNC(=O)c1cc2nccc(C)c2s1 [Compound 2e, Propyl (R)-2-amino-3-(7-methylthieno[3,2-b]pyridine-2-carboxamido)propanoate] | 10.3 | –
8 | Cc1ccnc2cc(C(=O)NC[C@@H](N)C(=O)OC3CCCCC3)sc12 [Compound 2n, Cyclohexyl (R)-2-amino-3-(7-methylthieno[3,2-b]pyridine-2-carboxamido)propanoate] | 5.86 | –
9 | N[C@H](CNC(=O)c1cc2nccc(C(F)(F)F)c2s1)C(=O)O [Compound 1f, (R)-2-amino-3-(7-(trifluoromethyl)thieno[3,2-b]pyridine-2-carboxamido) propanoic acid] | – | Papp A→B at 60 min, 0.5 µM ([1]; MDCK-MDR1, parent compounds): 1.03 ×10⁻⁶ cm/s
10 | COC(=O)[C@H](N)CNC(=O)c1cc2nccc(C3CC3)c2s1 [Compound 2b, Methyl (R)-2-amino-3-(7-cyclopropylthieno[3,2-b]pyridine-2-carboxamido) propanoate] | 9.25 | –
11 | Cc1ccnc2cc(C(=O)NC[C@@H](N)C(=O)OCC(C)C)sc12 [Compound 2i, Isobutyl (R)-2-amino-3-(7-methylthieno[3,2-b]pyridine-2-carboxamido)propanoate] | 8.19 | –
12 | COC(=O)[C@H](N)CNC(=O)c1cc2nccc(CO)c2s1 [Compound 2v, Methyl (R)-2-amino-3-(7-(hydroxymethyl)thieno[3,2-b]pyridine-2-carboxamido) propanoate] | 1.16 | –
13 | Cc1cnc2cc(C(=O)NC[C@@H](N)C(=O)O)sc2c1C [Compound 1l, (R)-2-amino-3-(6,7-dimethylthieno[3,2-b]pyridine-2-carboxamido)propanoic acid] | – | Papp A→B at 60 min, 0.5 µM ([1]; MDCK-MDR1, parent compounds): 0.47 ×10⁻⁶ cm/s
14 | COC(=O)[C@H](N)CNC(=O)c1cc2nccc(Br)c2s1 [Compound 2u, Methyl (R)-2-amino-3-(7-bromothieno[3,2-b]pyridine-2-carboxamido)propanoate] | – | Total Brain concentration (ng/mL) 30 min post dose ([2]; compound quantified 1h): BLOQ
15 | Cc1ccnc2cc(C(=O)NC[C@@H](N)C(=O)O)sc12 [Compound 1c, (R)-2-amino-3-(7-methylthieno[3,2-b]pyridine-2-carboxamido)propanoic acid] | – | Permeability Papp (AB) (MDR1-MDCKII cells): BLOQ
16 | COCCOC(=O)[C@H](N)CNC(=O)c1cc2nccc(C)c2s1 [Compound 2k, 2-Methoxyethyl (R)-2-amino-3-(7-methylthieno[3,2-b]pyridine-2-carboxamido)propanoate] | 4.77 | –

Row | Compound | Papp A→B at 60 min, 0.5 µM ([1]; MDCK-MDR1, prodrug compounds) [×10⁻⁶ cm/s] | further results
17 | CC(C)Oc1ccnc2cc(C(=O)NC[C@@H](N)C(=O)O)sc12 [Compound 1g, (R)-2-amino-3-(7-isopropoxythieno[3,2-b]pyridine-2-carboxamido)propanoic acid] | – | Permeability Papp (AB) (MDR1-MDCKII cells): BLOQ
18 | COC(=O)[C@H](N)CNC(=O)c1cc2ncc(C)c(C)c2s1 [Compound 2y, Methyl (R)-2-amino-3-(6,7-dimethylthieno[3,2-b]pyridine-2-carboxamido)propanoate] | 7.08 | –
19 | COC(=O)[C@H](N)CNC(=O)c1cc2nccc(OC(C)C)c2s1 [Compound 2t, Methyl (R)-2-amino-3-(7-isopropoxythieno[3,2-b]pyridine-2-carboxamido)propanoate] | 4.81 | –
20 | CCc1ccccc1-c1ccnc2cc(C(=O)NC[C@@H](N)C(=O)O)sc12 [Compound 1d, (R)-2-amino-3-(7-(2-ethylphenyl)thieno[3,2-b]pyridine-2-carboxamido)propanoic acid] | – | Permeability Papp (AB) (MDR1-MDCKII cells): BLOQ
21 | CCc1ccccc1-c1ccnc2cc(C(=O)NC[C@@H](N)C(=O)OC)sc12 [Compound 2q, Methyl (R)-2-amino-3-(7-(2-ethylphenyl)thieno[3,2-b]pyridine-2-carboxamido)propanoate] | 1.97 | –
22 | COC(=O)[C@H](N)CNC(=O)c1cc2nccc(OC)c2s1 [Compound 2r, Methyl (R)-2-amino-3-(7-methoxythieno[3,2-b]pyridine-2-carboxamido)propanoate] | 5.54 | –
23 | COC(=O)[C@H](N)CNC(=O)c1cc2nccc(C(F)F)c2s1 [Compound 2a, Methyl (R)-2-amino-3-(7-(difluoromethyl)thieno[3,2-b]pyridine-2-carboxamido)propanoate] | 8.36 | –
24 | COC(=O)[C@H](N)CNC(=O)c1cc2nccc(CF)c2s1 [Compound 2w, Methyl (R)-2-amino-3-(7-(fluoromethyl)thieno[3,2-b]pyridine-2-carboxamido)propanoate] | 4.19 | –
25 | COC(=O)[C@H](N)CNC(=O)c1cc2nccc(C(F)(F)F)c2s1 [Compound 2s, Methyl (R)-2-amino-3-(7-(trifluoromethyl)thieno[3,2-b]pyridine-2-carboxamido)propanoate] | 12.3 | –
26 | Cc1ccnc2cc(C(=O)NC[C@@H](N)C(=O)OCCC(C)C)sc12 [Compound 2l, Isopentyl (R)-2-amino-3-(7-methylthieno[3,2-b]pyridine-2-carboxamido)propanoate] | 6.5 | –
27 | N[C@H](CNC(=O)c1cc2nccc(C3CC3)c2s1)C(=O)O [Compound 1b, (R)-2-amino-3-(7-cyclopropylthieno[3,2-b]pyridine-2-carboxamido) propanoic acid] | – | Permeability Papp (AB) (MDR1-MDCKII cells): BLOQ
28 | Cc1ccnc2cc(C(=O)NC[C@@H](N)C(=O)OCC3CC3)sc12 [Compound 2j, Cyclopropylmethyl (R)-2-amino-3-(7-methylthieno[3,2-b]pyridine-2-carboxamido)propanoate] | 11.9 | –
29 | COC(=O)[C@H](N)CNC(=O)c1cc2ncc(F)c(C)c2s1 [Compound 2x, Methyl (R)-2-amino-3-(6-fluoro-7-methyl-thieno[3,2-b]pyridine-2-carboxamido)propanoate] | 15.5 | –
30 | CCOC(=O)[C@H](N)CNC(=O)c1cc2nccc(C)c2s1 [Compound 2d, Ethyl (R)-2-amino-3-(7-methylthieno[3,2-b]pyridine-2-carboxamido)propanoate] | 15.2 | –
31 | N[C@H](CNC(=O)c1cc2nccc(C(F)F)c2s1)C(=O)O [Compound 1a, (R)-2-amino-3-(7-(difluoromethyl)thieno[3,2-b]pyridine-2-carboxamido)propanoic acid] | – | Permeability Papp (AB) (MDR1-MDCKII cells): BLOQ
